Experimental data published in patent publication US6670364B2, “Antagonists of MCP-1 function and methods of use thereof” (Telik, Inc., priority 2001, dated 2003).
Structures can show the parent of a compound that is named as a salt.

Each compound was assayed on female Lewis rats (assay: Collagen-induced arthritis model in rat, p.o. (Example 24)). Conditions: 2 mg/kg p.o. twice a day from day 0.
Type: in vivo
Method: Collagen-induced arthritis was induced in female Lewis rats as follows. Rats were injected subcutaneously with the emulsion of bovine collagen type 11 (3.3 mg/kg at day 0 and 1.67 mg/kg at day 7) and complete Freund's adjuvant (CFA) at the base of the tail at day 0 and immunized additionally at day 7. The test compounds were administered p.o. at day 0 and then twice a day for 21 days or 3 times a week until day 21 was also administered p.o. from day 13 to day 21 in another group. Paw swelling was measured by the increased volume of the legs using a plethysmometer.

Row | Compound | Percent Swelling day 14 [%] | Percent Swelling day 21 [%]
1 | Cc1nn(C)c2nc(N(C)CCN(C)C)c(C(=O)NC(=O)Nc3cccc(OC(C)C)c3)cc12 [Compound 140] | 14.2 ± 3.3 | 49.2 ± 14.1

Same assay, conditions: 10 mg/kg p.o. from day 13 to day 21

Row | Compound | Percent Swelling day 14 [%] | Percent Swelling day 21 [%]
2 | Cc1nn(C)c2nc(N(C)CCN(C)C)c(C(=O)NC(=O)Nc3cccc(OC(C)C)c3)cc12 [Compound 140] | 10.1 ± 1.6 | 73.5 ± 6.3

Same assay, conditions: 10 mg/kg p.o. twice a day from day 0

Row | Compound | Percent Swelling day 14 [%] | Percent Swelling day 21 [%]
3 | Cc1nn(C)c2nc(N(C)CCN(C)C)c(C(=O)NC(=O)Nc3cccc(OC(C)C)c3)cc12 [Compound 140] | 7.5 ± 1.0 | 28.0 ± 6.4

Each compound was assayed on ICR male mice (assay: Thioglycollate-induced inflammation model (Example 18)). Conditions: 2 mg/kg s.c., repeated immediately after broth injection and 3 h later; peritoneal cavity at 72 h; mouse.
Type: in vivo
Method: 3% Brewer's thioglycollate broth (Difco, Detroit, Mich.) was injected into the peritoneal cavity of ICR male mice, followed by subcutaneous administration of the test compound. The same dose of test compound was again administered immediately after the broth injection and 3 h later. After 72 h, the number of total elicited cells and MOMA2-positive cells in the peritoneal cavity was analyzed using an EPICS XL Beckman Coulter.

Row | Compound | MOMA2-positive Cells (× 10^6) | Total Cells (× 10^6)
4 | Cc1nn(C)c2ncc(C(=O)NC(=O)Nc3ccc(C(=O)N4CCN(C)CC4)c(Cl)c3)c(N3CCN(C)CC3)c12 [Compound 97] | 4.1 ± 0.3 × 10^6 | 6.4 ± 0.6 × 10^6

Same assay, conditions: 10 mg/kg s.c., repeated immediately after broth injection and 3 h later; peritoneal cavity at 72 h; mouse

Row | Compound | MOMA2-positive Cells (× 10^6) | Total Cells (× 10^6)
5 | Cc1nn(C)c2nc(N(C)CCN(C)C)c(C(=O)NC(=O)Nc3ccc(F)c(C(F)(F)F)c3)cc12 [Compound 116, (6-{[2-(Dimethylamino)ethyl]methylamino}-1,3-dimethylpyrazolo[5,4-b]-pyridin-5-yl)-N-({[4-fluoro-3-(trifluoromethyl)phenyl]amino}carbonyl)-carboxamide hydrochloride] | 3.0 ± 0.8 × 10^6 | 4.2 ± 1.1 × 10^6
6 | Cc1nn(C)c2nc(N(C)CCN(C)C)c(C(=O)NC(=O)Nc3cccc(OC(C)C)c3)cc12 [Compound 140] | 5.2 ± 0.6 × 10^6 | 7.3 ± 1.1 × 10^6

Each compound was assayed against hMCP-1 (Homo sapiens, UniProt P13500) (assay: Inhibition of MCP-1-induced chemotaxis (48-well chamber, Example 21)). Conditions: THP-1 cells, 2.5 nM hMCP-1, 48-well chamber, 2 hr.
hMCP-1, sequence (P13500 24-99): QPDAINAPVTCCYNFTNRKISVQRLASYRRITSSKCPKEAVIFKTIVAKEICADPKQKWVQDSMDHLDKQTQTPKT
Type: cell-based
Parameters: purchased PeproTech
Method: A 48-well microchemotaxis chamber with a 5 μm-pore size, PVP-coated polycarbonate filter membrane (Neuro Probe Inc., Cabin John, Md.) was used for testing. Compounds were prepared as 10 mM stock solution in DMSO. THP-1 cells were washed with RPMI 1640 medium supplemented with 0.5% BSA and 25 mM HEPES, pH 7.4, and suspended at a density of 4×10^6 cells/mL in the same medium. A 150 μL aliquot of this suspension was treated with an equal volume of test compound solution and the mixture incubated at 37° C. for 15 min. The lower chamber was loaded with 26 μL of a 2.5 nM solution of hMCP-1 (PeproTech) in medium. The filter membrane was placed over the lower chamber, followed by a silicon rubber gasket and the upper chamber. A 50 μL aliquot of the THP-1 cell suspension containing the test compound was added to the upper chamber and the assembly incubated in a 5% CO2 atmosphere at 37+ C. for 2 hr. The chamber was then disassembled and the cells remaining on the upper surface of the filter were scrapped off with a rubber scrapper. The filter was fixed with methanol, stained with Diff-Quik solution, and mounted on a slide glass. The cells that had migrated across the filter onto the lower surface were then counted by microscopic observation.

Row | Compound | IC50 [µM]
7 | Cc1nn(C)c2ncc(C(=O)NC(=O)Nc3ccc(F)c(C(F)(F)F)c3)c(O)c12 [Compound 43, N-({[4-fluoro-3-(trifluoromethyl)phenyl]amino}carbonyl)(4-hydroxy-1,3-dimethylpyrazolo[5,4-b]pyridin-5-yl)carboxamide] | 7.7
8 | Cc1nn(C)c2ncc(C(=O)NC(=O)Nc3ccc(F)c(C(F)(F)F)c3)c(N(C)C)c12 [Compound 44, [4-(Dimethylamino)-1,3-dimethylpyrazolo[5,4-b]pyridin-5-yl]-N-({[4-fluoro-3-(trifluoromethyl)phenyl]amino}carbonyl)carboxamide] | 8.2
9 | Cc1nn(C)c2ncc(C(=O)NC(=O)Nc3ccc(F)c(C(F)(F)F)c3)c(NCCN(C)C)c12 [Compound 46, (4-{[2-(Dimethylamino)ethyl]amino}-1,3-dimethylpyrazolo[5,4-b]pyridin-5-yl)-N-({[4-fluoro-3-(trifluoromethyl)phenyl]amino}carbonyl)carboxamide hydrochloride] | 2
10 | Cc1nn(C)c2ncc(C(=O)NC(=O)Nc3ccc(F)c(C(F)(F)F)c3)c(N(CCO)CCO)c12 [Compound 51, {4-[Bis(2-hydroxyethyl)amino]-1,3-dimethylpyrazolo[5,4-b]pyridin-5-yl}-N-({[4-fluoro-3-(trifluoromethyl)phenyl]amino}carbonyl)carboxamide] | 1.6
11 | Cc1nn(C)c2ncc(C(=O)NC(=O)Nc3ccc(F)c(C(F)(F)F)c3)c(NCCC34CCCN3CCC4)c12 [Compound 60, {1,3-Dimethyl-4-[(2-perhydropyrrolizin-7a-ylethyl)amino]pyrazolo[5,4-b]pyridin-5-yl}-N-({[4-fluoro-3-(trifluoromethyl)phenyl]amino}carbonyl)carboxamide hydrochloride] | 1.2
12 | Cc1nn(C)c2ncc(C(=O)NC(=O)Nc3ccc(F)c(C(F)(F)F)c3)c(NCc3ccccc3)c12 [Compound 61] | 20
13 | Cc1nn(C)c2ncc(C(=O)NC(=O)Nc3ccc(F)c(C(F)(F)F)c3)c(N3CCCCC3)c12 [Compound 64, (1,3-Dimethyl-4-piperidylpyrazolo[5,4-b]pyridin-5-yl)-N-({[4-fluoro-3-(trifluoromethyl)-phenyl]amino}carbonyl)carboxamide] | 2
14 | Cc1nn(C)c2ncc(C(=O)NC(=O)Nc3ccc(F)c(C(F)(F)F)c3)c(N3CCOCC3)c12 [Compound 65, (1,3-Dimethyl-4-morpholin-4-ylpyrazolo[5,4-b]pyridin-5-yl)-N-({[4-fluoro 3-(trifluoromethyl)phenyl]amino}carbonyl)carboxamide] | 10
15 | Cc1nn(C)c2ncc(C(=O)NC(=O)Nc3ccc(F)c(C(F)(F)F)c3)c(N3CCNCC3)c12 [Compound 67] | 1.8
16 | Cc1nn(C)c2ncc(C(=O)NC(=O)Nc3cccc(Cl)c3)c(N3CCN(C)CC3)c12 [Compound 68] | 4
17 | Cc1nn(C)c2ncc(C(=O)NC(=O)Nc3cccc(Br)c3)c(N3CCN(C)CC3)c12 [Compound 69] | 4
18 | Cc1nn(C)c2ncc(C(=O)NC(=O)Nc3ccc(Cl)cc3)c(N3CCN(C)CC3)c12 [Compound 70] | 4
19 | Cc1nn(C)c2ncc(C(=O)NC(=O)Nc3ccc(Cl)c(Cl)c3)c(N3CCN(C)CC3)c12 [Compound 71] | 4
20 | Cc1nn(C)c2ncc(C(=O)NC(=O)Nc3cccc(C(F)(F)F)c3)c(N3CCN(C)CC3)c12 [Compound 72] | 3.6
21 | Cc1nn(C)c2ncc(C(=O)NC(=O)Nc3cccc(C(F)(F)F)c3)c(N3CCN(C)CC3)c12 [Compound 73] | 1.7
22 | Cc1nn(C)c2ncc(C(=O)NC(=O)Nc3cccc(C(C)C)c3)c(N3CCN(C)CC3)c12 [Compound 74] | 4
23 | Cc1nn(C)c2ncc(C(=O)NC(=O)Nc3cccc(OC(C)C)c3)c(N3CCN(C)CC3)c12 [Compound 75] | 0.7

Row | Compound | IC50 [µM]
24 | Cc1nn(C)c2ncc(C(=O)NC(=O)Nc3ccc(C(=O)O)c(OC(C)C)c3)c(N3CCN(C)CC3)c12 [Compound 76] | 4
25 | Cc1nn(C)c2ncc(C(=O)NC(=O)Nc3cccc(OC(F)(F)F)c3)c(N3CCN(C)CC3)c12 [Compound 77] | 0.7
26 | Cc1nn(C)c2ncc(C(=O)NC(=O)Nc3cccc(-c4nccs4)c3)c(N3CCN(C)CC3)c12 [Compound 78] | 0.9
27 | Cc1nn(C)c2ncc(C(=O)NC(=O)Nc3cccc(-c4ccccc4)c3)c(N3CCN(C)CC3)c12 [Compound 80] | 4
28 | Cc1ccc(NC(=O)NC(=O)c2cnc3c(c(C)nn3C)c2N2CCN(C)CC2)cc1C(F)(F)F [Compound 83] | 4
29 | Cc1nn(C)c2ncc(C(=O)NC(=O)Nc3ccc(O)c(C(F)(F)F)c3)c(N3CCN(C)CC3)c12 [Compound 87] | 4
30 | Cc1nn(C)c2ncc(C(=O)NC(=O)Nc3cc(O)cc(C(F)(F)F)c3)c(N3CCN(C)CC3)c12 [Compound 89] | 4
31 | Cc1nn(C)c2ncc(C(=O)NC(=O)Nc3cc(C(F)(F)F)cc(C(F)(F)F)c3)c(N3CCN(C)CC3)c12 [Compound 91] | 3
32 | Cc1nn(C)c2ncc(C(=O)NC(=O)Nc3ccc(Cl)c(C(=O)OC(C)C)c3)c(N3CCN(C)CC3)c12 [Compound 92] | 2.1
33 | Cc1nn(C)c2ncc(C(=O)NC(=O)Nc3ccc(C(=O)N4CCOCC4)c(Cl)c3)c(N3CCN(C)CC3)c12 [Compound 94] | 1.2
34 | Cc1nn(C)c2ncc(C(=O)NC(=O)Nc3ccc(Cl)c(C(=O)N4CCOCC4)c3)c(N3CCN(C)CC3)c12 [Compound 95] | 1.9
35 | Cc1nn(C)c2ncc(C(=O)NC(=O)Nc3ccc(C(=O)N4CCN(C)CC4)c(Cl)c3)c(N3CCN(C)CC3)c12 [Compound 97] | 1.1
36 | Cc1nn(C)c2ncc(C(=O)NC(=O)Nc3ccc(F)c(C(F)(F)F)c3)c(N3CCN(c4ccccc4)CC3)c12 [Compound 103, [1,3-Dimethyl-4-(4-phenylpiperazinyl)pyrazolo[5,4-b]pyridin-5-yl]-N-({[4-fluoro-3-(trifluoromethyl)phenyl]amino}carbonyl)carboxamide] | 2
37 | Cc1nn(C)c2ncc(C(=O)NC(=O)Nc3ccc(F)c(C(F)(F)F)c3)c(-[n+]3ccc(N)cc3)c12 [Compound 106, 4-Amino-1-{5-[N-({[4-fluoro-3-(trifluoromethyl)phenyl]amino}carbonyl)carbamoyl]-1,3-dimethylpyrazolo[5,4-b]pyridin-4-yl}pyridinium chloride] | 0.4
38 | Cc1nn(C)c2ncc(C(=O)NC(=O)Nc3ccc(F)c(C(F)(F)F)c3)c(N3CCCN(C)CC3)c12 [Compound 108, [1,3-Dimethyl-4-(4-methyl(1,4-diazaperhydroepinyl))pyrazolo[5,4-b]pyridin-5-yl]-N-({[4-fluoro-3-(trifluoromethyl)phenyl]amino}carbonyl)carboxamide hydrochloride] | 2
39 | [4-(4-Ethylpiperazinyl)-1,3-dimethylpyrazolo[5,4-b]pyridin-5-yl]-N-({[4-fluoro-3-(trifluoromethyl)phenyl]amino}carbonyl)carboxamide hydrochloride [Compound 100] | 0.38
